What was measured:
beagle dogs = experiment: Dog study, urine phosphate excretion after oral capsules; format: in vivo; settings: 2250 mg elemental lanthanum twice daily, urine approximately 24 hours after dosing
[1] = system: Sprague-Dawley rats underwent 5/6th nephrectomy; experiment: In vivo study in 5/6th nephrectomy rats, urine phosphorus excretion; settings: 314 mg elemental lanthanum/kg/day oral, once daily for 14 days, compared to untreated rats
Protocol: Groups of six adult Sprague-Dawley rats underwent 5/6th nephrectomy in two stages over a period of 2 weeks and were then allowed to recover for a further two weeks prior to being randomized for treatment. The groups received vehicle (0.5% w/v carboxymethyl cellulose), or lanthanum oxycarbonate suspended in vehicle, once daily for 14 days by […] (10 ml/kg/day). The dose delivered 314 mg elemental lanthanum/kg/day. Dosing was carried out immediately before the dark (feeding) cycle on each day. Urine samples (24 hours) were collected prior to surgery, prior to the commencement of treatment, and twice weekly during the treatment period. Volume and phosphorus concentration were measured.
Feeding—During the acclimatization and surgery period, the animals were given Teklad phosphate sufficient diet (0.5% Ca, 0.3%P; Teklad No. TD85343), ad libitum. At the beginning of the treatment period, animals were pair fed based upon the average food consumption of the vehicle-treated animals the previous week.
5/6 Nephrectomy—After one week of acclimatization, all animals were subjected to 5/6 nephrectomy surgery. The surgery was performed in two stages. First, the two lower branches of the left renal artery were ligated. One week later, a right nephrectomy was performed. […]

dogs = experiment: Palatability study in dogs; format: in vivo; settings: 9 dogs, during hours post meal
Excerpt: Lanthanum oxycarbonate was mixed with wet and dry dog food and presented to 9 different dogs, almost all over 40 pounds.

| Compound | urine phosphate excretion, a marker of phosphorous binding (beagle dogs) | phosphorus excretion (urine), a marker of dietary phosphorus binding [1] | signs of nausea, vomiting, bloating or flatus (dogs) |
| --- | --- | --- | --- |
| O=C([O-])[O-].[La+3].[OH-] [compound A, LaCO3OH] | reduction of urine phosphate excretion | – | – |
| O=C([O-])[O-].[La+3].[La+3].[O-2].[O-2] [compound B, La2O2CO3] | reduction of urine phosphate excretion | – | – |
| O=C([O-])[O-].[La+3].[OH-] [lanthanum carbonate hydroxide] | – | decrease in phosphorus excretion | – |
| lanthanum oxycarbonate | – | decrease in phosphorus excretion | None of the dogs exhibited signs of nausea, vomiting, bloating or flatus |

Reference: patent publication US20080069860A1, “HYPERPHOSPHATEMIA IN DOMESTIC ANIMALS: COMPOSITIONS AND METHODS OF TREATMENT” (priority 2005, published 2008)
